Test results as given in EP3771719A1, “A PEPTIDE BINDING TO TAU-PROTEIN” (Hochschule für angewandte Wissenschaften Fachhochschule …, priority 2019, dated 2021).
Non-standard residues stand in square brackets, D forms with d. No end group written: not given here.

Experiments:
tau-protein = assay: ThT aggregation assay of tau-protein with heparin; type: biochemical; conditions: 24 µM tau, 6 µM heparin, 36 h
Description: A ThT-aggregation assay of tau was performed for quantifying the relative content of fibrils in the presence of peptides and heparin (6 µM). The concentration of tau-protein was 24 µM, the peptides were added at a ratio of 1:5 and 1:10 (tau-protein:peptide). The fluorescence measured of 24 µM tau-protein after incubation for 36h was arbitrarily set to be 100%, and the measured values and standard deviations of the other incubations are indicated as percentage proportions of this maximum value.
A ThT-aggregation assay of tau was performed for quantifying the relative content of fibrils in the presence of peptides and heparin (6 µM). Here, the D-enantiomers of the peptides and their retro-inverso-versions are used. "retro-inverso-version" as used herein, refers to a sequence wherein the amino acid sequence of one peptide, as read from its N-terminus to its C-terminus, has been reversed, such that the N-terminus and C-terminus of the peptide sequence have been inverted. The concentration of tau-protein was 24 µM, and the peptides MMD2 and MMD2rev were added at a ratio of 1:10. The peptides MMD3 and MMD3rev were added at a ratio of 1:5 and 1:10 (tau-protein:peptide). The fluorescence of tau-protein at 24 µM after an incubation of 36 h was arbitrarily set to be 100% and the measured values and standard deviations of the other incubations are indicated as percentage proportions of this maximum value.
To test the ability of the L-synthesized peptides to inhibit the aggregation of tau in vitro, thioflavin assays were performed. The peptides were added to the aggregation mix in a molar ratio of 1:5 and/or 1:10 (tau:peptide), respectively. As positive control, tau was incubated with heparin without addition of peptides, negative controls were tau alone with THT and buffer including THT. The relative fluorescence of the positive control was set to be 100% after 36 h of incubation and the relative fluorescence of the samples was normalized to the positive control.
To investigate the potential of the selected D-peptides MMD2, MMD2rev, MMD3 and MMD3rev to inhibit fibrillization of full-length tau, thioflavin fluorescence assays were performed. Tau aggregation was initiated by addition heparin to tau protein in a concentration of 24 µM, the mixtures were incubated in absence or presence of the respective peptide in a molar ratio of 1:10, in case of MMD2 as well as MMD2rev, and in molar ratio 1:10 and 1:5, in case of MMD3 and MMD3rev. After 36 hours of incubation, the fluorescence of the tau and heparin control sample reached a saturation level, and the value of fluorescence was set to 100%. […] MMD2 reduce the aggregation of tau to about 90% and MMD2rev reduce the aggregation to about 70%. […] The inventors observed also that ThT fluorescence decreased with increasing concentration of the MMD3 and MMD3rev signifying a robust dose-dependent inhibition of full-length tau aggregation.

PHF6* fibrils = assay: ELISA binding of FAM-labeled peptide to PHF6* fibrils; conditions: plate coated with 50 µg/ml PHF6* fibrils, FAM-labeled peptide 10, 20, 50 µg/ml, absorption at 450 nm
Description: As used herein, "PHF6*-fibrils" are fibrils comprising the D-enantiomeric version of tau-peptide VQIINK (SEQ ID NO: 5). The wells of a 96-well plate were coated with 50 µg/ml PHF6*-fibrils and were incubated for 1h. After washing of wells three times with PBS-T (phosphate buffer saline with 0.1 % tween), the free binding sites were blocked for 1 hour. Peptide MMD3-Lys(FAM)-NH2 was added (10 µg/ml, 20 µg/ml and 50 µg/ml) and incubated for 1 h. A specific anti-FITC-HRP-antibody was added at a dilution of 1:1000 and incubated for 1h. Thereafter, TMB-substrate solution was added and incubated for 20 min. After termination of the enzyme reaction by additional 20 % sulfuric acid, absorption at 450 nm was measured. The absorption of the negative control (buffer only) was substracted. Triplicate measurements were performed, at the average values of the measured absorptions of the different samples are shown as well as their respective standard deviations.
To evaluate the binding properties of MMD3 to PHF6* fibrils, ELISA was performed with FAM-labeled version of the peptide. […] The peptide was added in an increasing concentration, the bound peptide was detected with anti-FAM antibodies. After adding the substrate, the absorption at 450 nm, which represents the binding affinities, was measured.

tau monomers = assay: ELISA binding of FAM-labeled peptides to tau monomers; conditions: plate coated with 20 µg/ml tau monomers, FAM-labeled peptide in increasing concentrations, absorbance at 450 nm
Description: (§1) Peptides were used that had been labeled with a FAM (=5/6-carboxyfluorescein) at the C-terminus. The peptides used were MM2 (= LTPHKHHKHLHA as L-enantiomer = SEQ ID NO: 6) and MM3 (SEQ ID NO: 1), to which a Lys (FAM)-NH2-residue had been attached at the C-terminus, respectively. The wells of a 96-well plate were coated with 20 µg/ml monomeric tau-protein or tau-fibrils and were incubated for 1h. After washing three times with PBS-T (phosphate-buffered saline with 0.1 % tween), the free binding sites were blocked for over a period of 1 hour. The respective peptides MM2-Lys(FAM)-NH2 and MM3-Lys(FAM)-NH2 were added (1 µg/ml, 5 µg/ml, 10 µg/ml, 20 µg/ml) and incubated for 1h. A specific anti-FITC-HRP antibody (anti-fluorescein-isothiocyanate-horseradish-peroxidase) was added in 1:1000 dilution and was incubated for 1h. Thereafter, TMB-substrate was added and incubated for 20 min. After […] of enzyme reaction by addition of 20% sulfuric acid, the absorption at 450 nm was determined. Measurements were performed in triplicate and the average values of the measured absorption of these triplicate samples as well as their standard deviations are shown in figure 1.
(§2) The binding affinity of MMD2 and MMD3 was tested using ELISA. […] The detection was done with anti-FAM HRP antibodies and absorbance was measured at 450 nm. […]

PHF6* = assay: Thioflavin T test of PHF6* aggregation; type: biochemical; conditions: 1000 µM peptide, 100 µM PHF6*, 10 µM thioflavin T, RT, ThT fluorescence monitored over 30 h
Description: PHF6*-fibrils are fibrils comprising the D-enantiomeric version of tau-peptide VQIINK (SEQ ID NO: 5). Peptides MMD3 and MMD3rev were diluted in sodium phosphate buffer to 1000 µM, and 100 µM PHF6*-solution and 10 µM thioflavin T were added. 100 µM PHF6* and 10 µM thioflavin in Napi-buffer was used as positive control. The negative control was 10 µM thioflavin T in Napi-buffer only. The samples were pipetted into a black 96-well µclear flat-bottom plate and incubated for 30 h,the relative fluorescence (excitation = 440 nm and emission = 480 nm) was determined. Triplicate measurements were performed for each sample.
To test whether MMD3 and MMD3rev reduce PHF6* fibril formation, 1000 µM from the respective peptides were incubated with 100 µM PHF6* at RT, as positive control PHF6* was incubated alone. The relative fluorescence of THT was monitored over 30 h.

tau fibrils = assay: ELISA binding of FAM-labeled peptides to tau fibrils; conditions: plate coated with 20 µg/ml tau fibrils, FAM-labeled peptide in increasing concentrations, absorbance at 450 nm
Description: as §1, §2

Q: Which “aggregation of tau (relative ThT fluorescence, positive control tau + heparin = 100%)” value (tau-protein; molar ratio 1:5 (tau:peptide)) does the source give for DPLKARHTSVWY [MM3] here?
A: significantly inhibiting tau fibrils formation

Q: What about the “aggregation of tau (relative ThT fluorescence, positive control tau + heparin = 100%)” value (tau-protein; molar ratio 1:10 (tau:peptide)) of the same substance?
A: significantly inhibiting tau fibrils formation

Q: How did the “aggregation of tau (relative ThT fluorescence, positive control tau + heparin = 100%)” value (tau-protein; molar ratio 1:5 (tau:peptide)) turn out when LTPHKHHKHLHA [MM2, reference compound] was run?
A: about 50%

Q: What about the “aggregation of tau (relative ThT fluorescence, positive control tau + heparin = 100%)” value (tau-protein; molar ratio 1:10 (tau:peptide)) of the same substance?
A: nearly complete inhibition

Q: How did the “aggregation of tau (relative ThT fluorescence, positive control tau + heparin = 100%)” value (tau-protein; molar ratio 1:10 (tau:peptide)) turn out when “ahlhkhhkhptl (AHLHKHHKHPTL; all D-amino acids) [MMD2rev, reference compound]” was run?
A: about 70%

Q: How did the “binding to PHF6* fibrils” value (PHF6* fibrils) turn out when “dplkarhtsvwy ([dD][dP][dL][dK][dA][dR][dH][dT][dS][dV][dW][dY]) [MMD3]” was run?
A: bound to PHF6* fibrils in concentration-dependent manner

Q: What about the “aggregation of tau (relative ThT fluorescence, positive control tau + heparin = 100%)” value (tau-protein; molar ratio 1:5 (tau:peptide)) of the same substance?
A: inhibited formation of tau aggregates significantly

Q: What about the “aggregation of tau (relative ThT fluorescence, positive control tau + heparin = 100%)” value (tau-protein; molar ratio 1:10 (tau:peptide)) of the same substance?
A: inhibited formation of tau aggregates significantly

Q: What about the “binding to tau monomers” value (tau monomers) of the same substance?
A: binding could be demonstrated

Q: What about the “inhibition of PHF6* fibril formation” value (PHF6*) of the same substance?
A: did indeed inhibit the formation of PHF6* fibrils

Q: What about the “binding to tau fibrils” value (tau fibrils) of the same substance?
A: binding could be demonstrated

Q: What does the source list for ltphkhhkhlha [MMD2, reference compound]?
A: aggregation of tau (relative ThT fluorescence, positive control tau + heparin = 100%) (tau-protein; molar ratio 1:10 (tau:peptide)): about 90%; binding to tau monomers (tau monomers): binding could be demonstrated; binding to tau fibrils (tau fibrils): binding could be demonstrated

Q: What does the source list for “ywvsthraklpd ([dY][dW][dV][dS][dT][dH][dR][dA][dK][dL][dP][dD]) [MMD3rev]”?
A: aggregation of tau (relative ThT fluorescence, positive control tau + heparin = 100%) (tau-protein; molar ratio 1:5 (tau:peptide)): inhibited formation of tau aggregates significantly; aggregation of tau (relative ThT fluorescence, positive control tau + heparin = 100%) (tau-protein; molar ratio 1:10 (tau:peptide)): inhibited formation of tau aggregates significantly; inhibition of PHF6* fibril formation (PHF6*): did indeed inhibit the formation of PHF6* fibrils
